5 compounds from article PMC6861653 (Chembiochem : a European journal of chemical biology, 2019) can be followed below.

*1 amine or outer side, *2 acyl side, *3 side chain or, on linkers, in order; H or OH if unused. Where a SMILES comes first, the peptide text is derived from it. [ ]: non-standard residue; d: D form. X1 = O=C([C@H]1CCC[C@@H]1N[*:1])[*:2]

Common to all, as to type: cell-based
In experiment [1] the target is GLP-1R-RLuc8 / GFP^2-β-arrestin-1 (Homo sapiens, UniProt P43220). Briefly: β-arrestin-1 recruitment to GLP-1R, BRET assay in HEK293FT cells. Background: Recruitment of arrestin is a read-out of receptor activation apart from second messengers.
Chain of GLP-1R-RLuc8 / GFP^2-β-arrestin-1 (P43220 24-463): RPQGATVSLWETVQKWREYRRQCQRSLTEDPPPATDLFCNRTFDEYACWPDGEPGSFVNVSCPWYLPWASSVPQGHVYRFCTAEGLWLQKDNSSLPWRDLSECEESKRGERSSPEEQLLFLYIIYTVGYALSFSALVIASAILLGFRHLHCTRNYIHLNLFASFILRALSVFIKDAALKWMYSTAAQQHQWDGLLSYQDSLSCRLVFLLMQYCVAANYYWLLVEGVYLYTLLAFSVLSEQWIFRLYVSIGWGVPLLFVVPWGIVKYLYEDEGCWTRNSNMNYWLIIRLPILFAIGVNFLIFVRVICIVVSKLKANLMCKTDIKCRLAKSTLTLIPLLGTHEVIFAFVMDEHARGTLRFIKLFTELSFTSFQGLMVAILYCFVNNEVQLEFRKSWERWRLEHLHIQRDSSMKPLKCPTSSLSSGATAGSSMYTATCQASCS
Chain of GLP-1R-RLuc8 / GFP^2-β-arrestin-1 (P49407 whole entry partner): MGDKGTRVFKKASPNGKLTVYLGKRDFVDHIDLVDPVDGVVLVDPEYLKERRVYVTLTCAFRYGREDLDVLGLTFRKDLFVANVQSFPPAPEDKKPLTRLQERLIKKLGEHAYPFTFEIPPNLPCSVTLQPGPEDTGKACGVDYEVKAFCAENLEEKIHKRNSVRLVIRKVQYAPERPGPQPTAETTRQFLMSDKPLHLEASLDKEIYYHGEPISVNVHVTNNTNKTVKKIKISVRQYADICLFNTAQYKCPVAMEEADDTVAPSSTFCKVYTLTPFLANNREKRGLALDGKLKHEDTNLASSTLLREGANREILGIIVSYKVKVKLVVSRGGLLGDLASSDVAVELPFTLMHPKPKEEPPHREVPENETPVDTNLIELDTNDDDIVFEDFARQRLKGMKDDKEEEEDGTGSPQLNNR
For experiment [2], the target named is T1, GLP-1R (Homo sapiens, UniProt P43220). The following applies: HEK293 GloSensor cells transiently expressing GLP-1R.
T1 sequence (P43220 24-463, species assumed): as the sequence (P43220 24-463) above
Experiment [3] concerns the target GLP-1R-RLuc8 / GFP^2-β-arrestin-2(R393E, R395E) (Homo sapiens, UniProt P43220). Briefly: β-arrestin-2 recruitment to GLP-1R, BRET assay in HEK293FT cells.
Experiment [4] concerns the target T1, GLP-1R. Briefly: Signaling bias by Black-Leff operational model.

Chain of GLP-1R-RLuc8 / GFP^2-β-arrestin-2(R393E, R395E) (P43220 24-463, stated change not applied): as the sequence (P43220 24-463) above

Consider `CC[C@H](C)[C@H](NC(=O)[C@H]1CCC[C@@H]1NC(=O)[C@H](CCC(=O)O)NC(=O)[C@H](CCCCN)NC(=O)[C@H](C)NC(=O)[C@H]1CCC[C@@H]1NC(=O)[C@H](CCC(N)=O)NC(=O)CNC(=O)[C@H](CCC(=O)O)NC(=O)[C@H]1CCC[C@@H]1NC(=O)[C@H](Cc1ccc(O)cc1)NC(=O)[C@H](CO)NC(=O)[C@H](CO)NC(=O)[C@@H](NC(=O)[C@H](CC(=O)O)NC(=O)[C@H](CO)NC(=O)[C@@H](NC(=O)[C@H](Cc1ccccc1)NC(=O)[C@@H](NC(=O)CNC(=O)[C@H](CCC(=O)O)NC(=O)[C@H](C)NC(=O)[C@@H](N)Cc1c[nH]cn1)[C@@H](C)O)[C@@H](C)O)C(C)C)C(=O)N[C@@H](C)C(=O)N[C@@H](Cc1c[nH]c2ccccc12)C(=O)N[C@H]1CCC[C@@H]1C(=O)N[C@H](C(=O)N[C@@H](CCCCN)C(=O)NCC(=O)N[C@H]1CCC[C@@H]1C(=O)NCC(N)=O)C(C)C` [3b] (H-HAEGTFTSDVSSY[X1]EGQ[X1]AKE[X1]IAW[X1]VKG[X1]G-NH2; N-terminus assumed), for which, in experiment [1], the “β-arrestin-1 recruitment to the GLP-1R, in words” value is on record as “inability to induce recruitment of either β-arrestin”. In addition, the “GLP-1R activation by cAMP production, in words” value in experiment [2] is “no activation of the GLP-1R could be detected”. The “β-arrestin-2 recruitment to the GLP-1R, in words” value in experiment [3] is listed as “inability to induce recruitment of either β-arrestin”. `CC[C@H](C)[C@H](NC(=O)[C@H](Cc1ccccc1)NC(=O)[C@H](CCC(=O)O)NC(=O)[C@H]1CCC[C@@H]1NC(=O)[C@H](C)NC(=O)[C@H](C)NC(=O)[C@H](CCC(N)=O)NC(=O)[C@H]1CCC[C@@H]1NC(=O)[C@H](CCC(=O)O)NC(=O)[C@H](CC(C)C)NC(=O)[C@H](Cc1ccc(O)cc1)NC(=O)[C@H]1CCC[C@@H]1NC(=O)[C@H](CO)NC(=O)[C@@H](NC(=O)[C@H](CC(=O)O)NC(=O)[C@H](CO)NC(=O)[C@@H](NC(=O)[C@H](Cc1ccccc1)NC(=O)[C@@H](NC(=O)CNC(=O)[C@H](CCC(=O)O)NC(=O)[C@H](C)NC(=O)[C@@H](N)Cc1c[nH]cn1)[C@@H](C)O)[C@@H](C)O)C(C)C)C(=O)N[C@H]1CCC[C@@H]1C(=O)N[C@@H](Cc1c[nH]c2ccccc12)C(=O)N[C@@H](CC(C)C)C(=O)N[C@H](C(=O)N[C@H]1CCC[C@@H]1C(=O)NCC(=O)N[C@@H](CCCNC(=N)N)C(N)=O)C(C)C` [1b] (H-HAEGTFTSDVS[X1]YLE[X1]QAA[X1]EFI[X1]WLV[X1]GR-NH2; N-terminus assumed): the “Signal bias relative to GLP-1, in words” value in experiment [4] is given as “biased toward β-arrestin-2 recruitment vs. cAMP production”. In the case of `CC[C@H](C)[C@H](NC(=O)[C@H](Cc1ccccc1)NC(=O)[C@H]1CCC[C@@H]1NC(=O)[C@H](CCCCN)NC(=O)[C@H](C)NC(=O)[C@H](C)NC(=O)[C@H]1CCC[C@@H]1NC(=O)CNC(=O)[C@H](CCC(=O)O)NC(=O)[C@H](CC(C)C)NC(=O)[C@H]1CCC[C@@H]1NC(=O)[C@H](CO)NC(=O)[C@H](CO)NC(=O)[C@@H](NC(=O)[C@H](CC(=O)O)NC(=O)[C@H](CO)NC(=O)[C@@H](NC(=O)[C@H](Cc1ccccc1)NC(=O)[C@@H](NC(=O)CNC(=O)[C@H](CCC(=O)O)NC(=O)[C@H](C)NC(=O)[C@@H](N)Cc1c[nH]cn1)[C@@H](C)O)[C@@H](C)O)C(C)C)C(=O)N[C@@H](C)C(=O)N[C@H]1CCC[C@@H]1C(=O)N[C@@H](CC(C)C)C(=O)N[C@H](C(=O)N[C@@H](CCCCN)C(=O)N[C@H]1CCC[C@@H]1C(=O)N[C@@H](CCCNC(=N)N)C(N)=O)C(C)C` [2b] (H-HAEGTFTSDVSS[X1]LEG[X1]AAK[X1]FIA[X1]LVK[X1]R-NH2; N-terminus assumed), the “Signal bias relative to GLP-1, in words” value in experiment [4] was “smaller bias toward β-arrestin-2 vs. cAMP production”. With `CC(C)C[C@H](NC(=O)[C@H](Cc1ccc(O)cc1)NC(=O)[C@H](CO)NC(=O)[C@H]1CCC[C@@H]1NC(=O)[C@@H](NC(=O)[C@H](CC(=O)O)NC(=O)[C@H](CO)NC(=O)[C@@H](NC(=O)[C@H](Cc1ccccc1)NC(=O)[C@@H](NC(=O)CNC(=O)[C@H](CCC(=O)O)NC(=O)[C@H](C)NC(=O)[C@@H](N)Cc1c[nH]cn1)[C@@H](C)O)[C@@H](C)O)C(C)C)C(=O)N[C@H]1CCC[C@@H]1C(=O)NCC(=O)N[C@@H](CCC(N)=O)C(=O)N[C@@H](C)C(=O)N[C@H]1CCC[C@@H]1C(=O)N[C@@H](CCCCN)C(=O)N[C@@H](CCC(=O)O)C(=O)N[C@@H](Cc1ccccc1)C(=O)N[C@H]1CCC[C@@H]1C(=O)N[C@@H](C)C(=O)N[C@@H](Cc1c[nH]c2ccccc12)C(=O)N[C@@H](CC(C)C)C(=O)N[C@H]1CCC[C@@H]1C(=O)N[C@@H](CCCCN)C(=O)NCC(=O)N[C@@H](CCCNC(=N)N)C(N)=O` [4b] (H-HAEGTFTSDV[X1]SYL[X1]GQA[X1]KEF[X1]AWL[X1]KGR-NH2; N-terminus assumed), the “Signal bias relative to GLP-1, in words” value in experiment [4] is reported as “balanced signaling behavior”. Regarding `CC[C@H](C)[C@H](NC(=O)[C@H](Cc1ccccc1)NC(=O)C[C@H](CCC(=O)O)NC(=O)[C@H](CCCCN)NC(=O)[C@H](C)NC(=O)[C@H](C)NC(=O)C[C@H](CCC(N)=O)NC(=O)CNC(=O)[C@H](CCC(=O)O)NC(=O)[C@H](CC(C)C)NC(=O)C[C@H](Cc1ccc(O)cc1)NC(=O)[C@H](CO)NC(=O)[C@H](CO)NC(=O)[C@@H](NC(=O)[C@H](CC(=O)O)NC(=O)[C@H](CO)NC(=O)[C@@H](NC(=O)[C@H](Cc1ccccc1)NC(=O)[C@@H](NC(=O)CNC(=O)[C@H](CCC(=O)O)NC(=O)[C@H](C)NC(=O)[C@@H](N)Cc1c[nH]cn1)[C@@H](C)O)[C@@H](C)O)C(C)C)C(=O)N[C@@H](C)C(=O)N[C@H](CC(=O)N[C@@H](CC(C)C)C(=O)N[C@H](C(=O)N[C@@H](CCCCN)C(=O)NCCC(=O)N[C@@H](CCCNC(=N)N)C(N)=O)C(C)C)Cc1c[nH]c2ccccc12` [2a], the “Signal bias relative to GLP-1, in words” value in experiment [4] is listed as “modestly biased toward cAMP production relative to β-arrestin-1 recruitment”.
